Reference: BindingDB's records for doi:10.1021/jm980414r (Glaxo Wellcome Research and Development, 1998)

assay: -log concentration required to induce 50% maximum lipogenic activity against Peroxisome proliferator activated receptor gamma

Q: With `CN(CCOc1ccc(CC(Nc2ccc(Cl)cc2C(=O)c2ccccc2)C(=O)O)cc1)c1nc2ccccc2o1` (stereo unspecified) as the molecule, how does the EC50 read?
A: Its EC50 is 178 nM.

Q: For `CCOC(=O)c1ccccc1NC(Cc1ccc(OCCc2nc(-c3ccccc3)oc2C)cc1)C(=O)O` (stereo unspecified), which EC50 is on record?
A: Its EC50 is 0.427 nM.

Q: For `CN(CCOc1ccc(CC(Nc2ccccc2C(=O)c2ccc(-c3ccccc3)cc2)C(=O)O)cc1)c1nc2ccccc2o1` (stereo unspecified), which EC50 is on record?
A: The EC50 was 339 nM.

Q: Which EC50 does the source give for `CSc1nc(NC(Cc2ccc(OCCN(C)c3nc4ccccc4o3)cc2)C(=O)O)c(C(=O)c2ccccc2)s1` (stereo unspecified) here?
A: The EC50 was < 2510 nM.

Q: Which EC50 does the source give for `Cc1oc(-c2ccccc2)nc1CCOc1ccc(CC(Nc2ccccc2C(=O)c2cccc(CO)c2)C(=O)O)cc1` (stereo unspecified) here?
A: Its EC50 is 759 nM.

Q: Which EC50 does the source give for `CNC(=O)c1ccccc1NC(Cc1ccc(OCCc2nc(-c3ccccc3)oc2C)cc1)C(=O)O` (stereo unspecified) here?
A: Its EC50 is 363 nM.

Q: For `CN(CCOc1ccc(CC(Nc2ccccc2C(=O)c2cccc(OCc3ccccc3)c2)C(=O)O)cc1)c1nc2ccccc2o1` (stereo unspecified), which EC50 is on record?
A: Its EC50 is 891 nM.

Q: With `COc1ccc(C(=O)c2ccccc2NC(Cc2ccc(OCCN(C)c3nc4ccccc4o3)cc2)C(=O)O)cc1` (stereo unspecified) as the molecule, how does the EC50 read?
A: The EC50 was 95 nM.

Q: For `CN(CCOc1ccc(CC(Nc2ccccc2C(=O)c2ccc(C(F)(F)F)cc2)C(=O)O)cc1)c1nc2ccccc2o1` (stereo unspecified), which EC50 is on record?
A: Its EC50 is 69 nM.

Q: Which EC50 does the source give for `Cc1oc(-c2ccccc2)nc1CCOc1ccc(CC(Nc2ccccc2C(=O)OC(C)C)C(=O)O)cc1` (stereo unspecified) here?
A: The EC50 was 3.2 nM.

Q: For `Cc1oc(-c2ccccc2)nc1CCOc1ccc(CC(Nc2ccccc2C(=O)N(C)C)C(=O)O)cc1` (stereo unspecified), which EC50 is on record?
A: Its EC50 is > 1000 nM.

Q: Which EC50 does the source give for `CN(CCOc1ccc(CC(Nc2ccccc2C(=O)c2cccc(C(F)(F)F)c2)C(=O)O)cc1)c1nc2ccccc2o1` (stereo unspecified) here?
A: The EC50 was 27 nM.

Q: With `Cc1oc(-c2ccccc2)nc1CCOc1ccc(CC(Nc2ccccc2C(=O)c2cccc(CN(C)C)c2)C(=O)O)cc1` (stereo unspecified) as the molecule, how does the EC50 read?
A: Its EC50 is 1180 nM.

Q: For `Cc1oc(-c2ccccc2)nc1CCOc1ccc(CC(Nc2ccccc2C(=O)c2cccnc2)C(=O)O)cc1` (stereo unspecified), which EC50 is on record?
A: The EC50 was 17 nM.

Q: For `COc1cccc(C(=O)c2ccccc2NC(Cc2ccc(OCCN(C)c3nc4ccccc4o3)cc2)C(=O)O)c1` (stereo unspecified), which EC50 is on record?
A: The EC50 was 155 nM.

Q: For `Cc1ccc(C(=O)c2ccccc2NC(Cc2ccc(OCCN(C)c3nc4ccccc4o3)cc2)C(=O)O)cc1` (stereo unspecified), which EC50 is on record?
A: Its EC50 is 12 nM.

Q: Which EC50 does the source give for `CN(CCOc1ccc(CC(Nc2ccccc2C(=O)c2ccc(OCc3ccccc3)cc2)C(=O)O)cc1)c1nc2ccccc2o1` (stereo unspecified) here?
A: The EC50 was 676 nM.

Q: With `CN(CCOc1ccc(CC(Nc2ccccc2C(=O)C2CCCCCC2)C(=O)O)cc1)c1nc2ccccc2o1` (stereo unspecified) as the molecule, how does the EC50 read?
A: The EC50 was 66 nM.

Q: For `Cc1cccc(C(=O)c2ccccc2NC(Cc2ccc(OCCN(C)c3nc4ccccc4o3)cc2)C(=O)O)c1` (stereo unspecified), which EC50 is on record?
A: The EC50 was 14 nM.

Q: Which EC50 does the source give for `CN(CCOc1ccc(CC(Nc2cscc2C(=O)c2ccccc2)C(=O)O)cc1)c1nc2ccccc2o1` (stereo unspecified) here?
A: The EC50 was 1.4 nM.

Q: With `CN(CCOc1ccc(CC(Nc2ccccc2C(=O)C2CCCC2)C(=O)O)cc1)c1nc2ccccc2o1` (stereo unspecified) as the molecule, how does the EC50 read?
A: The EC50 was 24 nM.

Q: For `CN(CCOc1ccc(CC(Nc2ccccc2C(=O)c2ccccc2C(F)(F)F)C(=O)O)cc1)c1nc2ccccc2o1` (stereo unspecified), which EC50 is on record?
A: The EC50 was 71 nM.

Q: With `CN(CCOc1ccc(CC(Nc2ccccc2C(=O)c2cccs2)C(=O)O)cc1)c1nc2ccccc2o1` (stereo unspecified) as the molecule, how does the EC50 read?
A: The EC50 was 78 nM.

Q: With `Cc1oc(-c2ccccc2)nc1CCOc1ccc(CC(Nc2ccccc2C(=O)c2cccc(N)c2)C(=O)O)cc1` (stereo unspecified) as the molecule, how does the EC50 read?
A: Its EC50 is 132 nM.

Q: Which EC50 does the source give for `COc1ccccc1C(=O)c1ccccc1NC(Cc1ccc(OCCN(C)c2nc3ccccc3o2)cc1)C(=O)O` (stereo unspecified) here?
A: The EC50 was 501 nM.

Q: With `CN(CCOc1ccc(CC(Nc2sccc2C(=O)c2ccccc2)C(=O)O)cc1)c1nc2ccccc2o1` (stereo unspecified) as the molecule, how does the EC50 read?
A: The EC50 was 95 nM.

Q: With `Cc1oc(-c2ccccc2)nc1CCOc1ccc(CC(Nc2ccccc2C(=O)c2ccncc2)C(=O)O)cc1` (stereo unspecified) as the molecule, how does the EC50 read?
A: Its EC50 is 107 nM.

Q: For `Cc1oc(-c2ccccc2)nc1CCOc1ccc(C[C@@H](Nc2ccccc2C(=O)C2CCCCC2)C(=O)O)cc1`, which EC50 is on record?
A: Its EC50 is 372 nM.

Q: With `Cc1oc(-c2ccccc2)nc1CCOc1ccc(CC(Nc2ccccc2C(=O)c2ccc(CN(C)C)cc2)C(=O)O)cc1` (stereo unspecified) as the molecule, how does the EC50 read?
A: Its EC50 is 977 nM.

Q: For `CCCOC(=O)c1ccccc1NC(Cc1ccc(OCCc2nc(-c3ccccc3)oc2C)cc1)C(=O)O` (stereo unspecified), which EC50 is on record?
A: Its EC50 is 13 nM.

Q: For `Cc1oc(-c2ccccc2)nc1CCOc1ccc(CC(Nc2ccccc2C(=O)O)C(=O)O)cc1` (stereo unspecified), which EC50 is on record?
A: The EC50 was > 10000 nM.

Q: With `CN(CCOc1ccc(CC(Nc2ccccc2C(=O)c2ccccc2)C(=O)O)cc1)c1nc2ccccc2o1` (stereo unspecified) as the molecule, how does the EC50 read?
A: Its EC50 is 4.4 nM.

Q: With `Cc1oc(-c2ccccc2)nc1CCOc1ccc(CC(Nc2ccccc2C(=O)c2ccc(CO)cc2)C(=O)O)cc1` (stereo unspecified) as the molecule, how does the EC50 read?
A: The EC50 was 174 nM.

Q: With `CN(CCOc1ccc(CC(Nc2ccsc2C(=O)c2ccccc2)C(=O)O)cc1)c1nc2ccccc2o1` (stereo unspecified) as the molecule, how does the EC50 read?
A: Its EC50 is 3.5 nM.

Q: For `Cc1ccc(NC(Cc2ccc(OCCN(C)c3nc4ccccc4o3)cc2)C(=O)O)c(C(=O)c2ccccc2)c1` (stereo unspecified), which EC50 is on record?
A: Its EC50 is 63 nM.

Q: For `Cc1ccccc1C(=O)c1ccccc1NC(Cc1ccc(OCCN(C)c2nc3ccccc3o2)cc1)C(=O)O` (stereo unspecified), which EC50 is on record?
A: Its EC50 is 6.9 nM.

Q: With `CN(CCOc1ccc(CC(Nc2ccccc2C(=O)c2ccsc2)C(=O)O)cc1)c1nc2ccccc2o1` (stereo unspecified) as the molecule, how does the EC50 read?
A: The EC50 was 72 nM.

Q: Which EC50 does the source give for `CN(CCOc1ccc(C[C@H](Nc2ccccc2C(=O)C2CCCCC2)C(=O)O)cc1)c1nc2ccccc2o1` here?
A: The EC50 was 8.5 nM.

Q: Which EC50 does the source give for `CN(CCOc1ccc(CC(Nc2ccncc2C(=O)c2ccccc2)C(=O)O)cc1)c1nc2ccccc2o1` (stereo unspecified) here?
A: Its EC50 is 724 nM.

Q: With `CN(CCOc1ccc(CC(Nc2ccccc2C(=O)c2cccc3ccccc23)C(=O)O)cc1)c1nc2ccccc2o1` (stereo unspecified) as the molecule, how does the EC50 read?
A: Its EC50 is 2.7 nM.

Q: With `Cc1oc(-c2ccccc2)nc1CCOc1ccc(CC(Nc2ccccc2C(=O)c2cccc(C(=O)O)c2)C(=O)O)cc1` (stereo unspecified) as the molecule, how does the EC50 read?
A: The EC50 was 1580 nM.
